# Entries after “also recorded” stand apart in the source; their conditions may differ.
# Tested on: Phytophthora capsici
# Experiment: not given
# Type: cell-based
# Conditions: read-out: Inhibition rate, Pc
row,SMILES,inhibition at 50 µg/mL
1,O=C(Cn1ccc(=O)c2ccccc21)NN=Cc1ccc(-c2ccccc2)cc1 [Compound 11],26.2 ± 1.5%
2,COc1cccc(C=NNC(=O)Cn2ccc(=O)c3ccccc32)c1 [Compound 4],38.1 ± 1.7%
3,O=C(Cn1ccc(=O)c2ccccc21)NN=Cc1cc2ccccc2[nH]1 [Compound 23],31 ± 2.1%
4,O=C(Cn1ccc(=O)c2ccccc21)NN=Cc1ccc(C(F)(F)F)cc1 [Compound 17],9.5 ± 0.8%

# Tested on: Bipolaris maydis
# Experiment: not given
# Type: cell-based
# Conditions: read-out: Inhibition rate, Bm
row,SMILES,inhibition at 50 µg/mL
1,O=C(Cn1ccc(=O)c2ccccc21)NN=Cc1ccc(-c2ccccc2)cc1 [Compound 11],11.1 ± 0.9%
2,COc1cccc(C=NNC(=O)Cn2ccc(=O)c3ccccc32)c1 [Compound 4],33.3 ± 1.4%
3,O=C(Cn1ccc(=O)c2ccccc21)NN=Cc1cc2ccccc2[nH]1 [Compound 23],8.9 ± 1.1%
4,O=C(Cn1ccc(=O)c2ccccc21)NN=Cc1ccc(C(F)(F)F)cc1 [Compound 17],8.9 ± 0.9%

# Tested on: TMV
# Experiment: not given
# Conditions: 500 mg/L; cited from earlier work
row,SMILES,protective activity against TMV
1,Cn1ccc(=O)c2ccccc21 [echinopsine],42.6%

# Tested on: Botrytis cinerea
# Experiment: not given
# Type: cell-based
# Conditions: read-out: Inhibition rate, Bc
row,SMILES,inhibition at 50 µg/mL
1,O=C(Cn1ccc(=O)c2ccccc21)NN=Cc1ccc(-c2ccccc2)cc1 [Compound 11],25 ± 1.8%
2,COc1cccc(C=NNC(=O)Cn2ccc(=O)c3ccccc32)c1 [Compound 4],14.6 ± 0.7%
3,O=C(Cn1ccc(=O)c2ccccc21)NN=Cc1cc2ccccc2[nH]1 [Compound 23],10.4 ± 1.2%
4,O=C(Cn1ccc(=O)c2ccccc21)NN=Cc1ccc(C(F)(F)F)cc1 [Compound 17],18.8 ± 1.5%

# Tested on: Sclerotinia sclerotiorum
# Experiment: not given
# Type: cell-based
# Conditions: read-out: Inhibition rate, Ss
row,SMILES,inhibition at 50 µg/mL
1,O=C(Cn1ccc(=O)c2ccccc21)NN=Cc1ccc(-c2ccccc2)cc1 [Compound 11],22 ± 1.4%
2,COc1cccc(C=NNC(=O)Cn2ccc(=O)c3ccccc32)c1 [Compound 4],36.6 ± 1.5%
3,O=C(Cn1ccc(=O)c2ccccc21)NN=Cc1cc2ccccc2[nH]1 [Compound 23],12.2 ± 0.9%
4,O=C(Cn1ccc(=O)c2ccccc21)NN=Cc1ccc(C(F)(F)F)cc1 [Compound 17],22 ± 1.3%

# Tested on: 14 kinds of phytopathogenic fungi
# Experiment: Fungicidal activity against 14 kinds of phytopathogenic fungi
# Type: cell-based
# Conditions: read-out: inhibitory rate against three fungi
row,SMILES,inhibition at 50 µg/mL
1,COc1cccc(C=NNC(=O)Cn2ccc(=O)c3ccccc32)c1 [Compound 4],> 40%

# Tested on: TMV particles
# Experiment: Morphological observation of TMV particles via transmission electron microscopy
# Parameters: species or system tobacco mosaic virus
# Conditions: 500 mg/L
row,SMILES,effect on the morphology of TMV particles (TEM)
1,COc1cccc(C=NNC(=O)Cn2ccc(=O)c3ccccc32)c1 [Compound 4],hindered the self-assembly and growth of TMV; also recorded: fragmented into shorter rods
2,"NC(=O)c1ncn([C@@H]2O[C@H](CO)[C@@H](O)[C@H]2O)n1 [Ribavirin, reference compound]",fragmented into shorter rods

# Tested on: Fusarium oxysporium f. sp. cucumeris
# Experiment: not given
# Type: cell-based
# Conditions: read-out: Inhibition rate, Fc
row,SMILES,inhibition at 50 µg/mL
1,O=C(Cn1ccc(=O)c2ccccc21)NN=Cc1ccc(-c2ccccc2)cc1 [Compound 11],22.4 ± 1.3%
2,COc1cccc(C=NNC(=O)Cn2ccc(=O)c3ccccc32)c1 [Compound 4],36.7 ± 1.4%
3,O=C(Cn1ccc(=O)c2ccccc21)NN=Cc1cc2ccccc2[nH]1 [Compound 23],6.1 ± 1.3%
4,O=C(Cn1ccc(=O)c2ccccc21)NN=Cc1ccc(C(F)(F)F)cc1 [Compound 17],26.5 ± 1.7%

# Tested on: TMV
# Experiment: Curative effect of compounds against TMV in vivo
# Conditions: Tobacco mosaic virus, read-out: relative inhibition rate (%) curative effect
SMILES,inhibition at 100 µg/mL,inhibition at 500 µg/mL
O=C(Cn1ccc(=O)c2ccccc21)NN=Cc1ccc(-c2ccccc2)cc1 [Compound 11],10.1 ± 2%,43 ± 2.7%
COc1cccc(C=NNC(=O)Cn2ccc(=O)c3ccccc32)c1 [Compound 4],14 ± 0.5%,47.6 ± 2.5%
O=C(Cn1ccc(=O)c2ccccc21)NN=Cc1cc2ccccc2[nH]1 [Compound 23],6.6 ± 1.9%,32.5 ± 4.1%
"NC(=O)c1ncn([C@@H]2O[C@H](CO)[C@@H](O)[C@H]2O)n1 [Ribavirin, reference compound]",10.1 ± 1.6%,38 ± 2.2%
O=C(Cn1ccc(=O)c2ccccc21)NN=Cc1ccc(C(F)(F)F)cc1 [Compound 17],17.7 ± 1.5%,49.2 ± 3%

# Tested on: TMV
# Experiment: not given
# Conditions: cited from earlier work
row,SMILES,actual inhibitory effect in the field
1,CNCC(=O)N[C@@H](CO)C(=O)N[C@H]1[C@H](O)[C@@H](O)[C@H](n2ccc(N)nc2=O)O[C@@H]1C(N)=O [Ningnanmycin],lower than 60%

# Tested on: Rhizoctonia solani
# Experiment: not given
# Type: cell-based
# Conditions: read-out: Inhibition rate, Rs
row,SMILES,inhibition at 50 µg/mL
1,O=C(Cn1ccc(=O)c2ccccc21)NN=Cc1ccc(-c2ccccc2)cc1 [Compound 11],35.7 ± 2.2%
2,COc1cccc(C=NNC(=O)Cn2ccc(=O)c3ccccc32)c1 [Compound 4],57.1 ± 2.3%
3,O=C(Cn1ccc(=O)c2ccccc21)NN=Cc1cc2ccccc2[nH]1 [Compound 23],3.6 ± 0.5%
4,O=C(Cn1ccc(=O)c2ccccc21)NN=Cc1ccc(C(F)(F)F)cc1 [Compound 17],3.6 ± 0.7%

# Target: T1, TMV coat protein (TMV-CP) (Tobacco mosaic virus, UniProt P69687)
# T1 sequence (P69687 2-159 limits assumed): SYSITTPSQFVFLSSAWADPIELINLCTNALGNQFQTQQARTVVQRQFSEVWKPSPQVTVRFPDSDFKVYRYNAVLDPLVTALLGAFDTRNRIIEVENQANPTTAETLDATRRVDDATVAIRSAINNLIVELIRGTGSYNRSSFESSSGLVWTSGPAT
# Experiment: Microscale thermophoresis binding to TMV-CP
# Conditions: not given
row,SMILES,Kd
1,COc1cccc(C=NNC(=O)Cn2ccc(=O)c3ccccc32)c1 [Compound 4],142 ± 60 nM
2,"NC(=O)c1ncn([C@@H]2O[C@H](CO)[C@@H](O)[C@H]2O)n1 [Ribavirin, reference compound]",512 ± 257 nM

# Tested on: Fusarium graminearum
# Experiment: microbe, parasite or virus in culture
# Type: cell-based
# Conditions: read-out: Inhibition rate, Fg
row,SMILES,inhibition at 50 µg/mL
1,O=C(Cn1ccc(=O)c2ccccc21)NN=Cc1ccc(-c2ccccc2)cc1 [Compound 11],9.5 ± 0.7%
2,COc1cccc(C=NNC(=O)Cn2ccc(=O)c3ccccc32)c1 [Compound 4],38.1 ± 1.9%
3,O=C(Cn1ccc(=O)c2ccccc21)NN=Cc1cc2ccccc2[nH]1 [Compound 23],14.3 ± 1.1%
4,O=C(Cn1ccc(=O)c2ccccc21)NN=Cc1ccc(C(F)(F)F)cc1 [Compound 17],19 ± 1.2%

# Tested on: TMV
# Experiment: not given
# Conditions: 500 mg/L; cited from earlier work
# Remark: another data set of the same source
row,SMILES,inactive activity against TMV
1,Cn1ccc(=O)c2ccccc21 [echinopsine],49.5%

# Tested on: TMV
# Experiment: not given
# Conditions: 500 mg/L; cited from earlier work
# Remark: another data set of the same source
row,SMILES,curative activity against TMV
1,Cn1ccc(=O)c2ccccc21 [echinopsine],46.1%

# Tested on: Alternaria solani
# Experiment: not given
# Type: cell-based
# Conditions: read-out: Inhibition rate, As
row,SMILES,inhibition at 50 µg/mL
1,O=C(Cn1ccc(=O)c2ccccc21)NN=Cc1ccc(-c2ccccc2)cc1 [Compound 11],38.5 ± 2.4%
2,COc1cccc(C=NNC(=O)Cn2ccc(=O)c3ccccc32)c1 [Compound 4],61.5 ± 3.2%
3,O=C(Cn1ccc(=O)c2ccccc21)NN=Cc1cc2ccccc2[nH]1 [Compound 23],15.4 ± 1.5%
4,O=C(Cn1ccc(=O)c2ccccc21)NN=Cc1ccc(C(F)(F)F)cc1 [Compound 17],15.4 ± 1.3%

# Tested on: watermelon anthracnose
# Experiment: organism not typed
# Type: cell-based
# Conditions: read-out: Inhibition rate, Wa
row,SMILES,inhibition at 50 µg/mL
1,O=C(Cn1ccc(=O)c2ccccc21)NN=Cc1ccc(-c2ccccc2)cc1 [Compound 11],14 ± 1.7%
2,COc1cccc(C=NNC(=O)Cn2ccc(=O)c3ccccc32)c1 [Compound 4],39.5 ± 1.1%
3,O=C(Cn1ccc(=O)c2ccccc21)NN=Cc1cc2ccccc2[nH]1 [Compound 23],11.6 ± 0.9%
4,O=C(Cn1ccc(=O)c2ccccc21)NN=Cc1ccc(C(F)(F)F)cc1 [Compound 17],11.6 ± 1.2%

# Tested on: TMV
# Experiment: Inactivation effect of compounds against TMV in vivo
# Parameters: species or system tobacco mosaic virus
# Conditions: 100 mg/L, in vivo, against TMV
row,SMILES,relative inhibition rate (%) inactive effect
1,O=C(Cn1ccc(=O)c2ccccc21)NN=Cc1cc2ccccc2[nH]1 [Compound 23],did not exhibit any

# Same assay, conditions: Tobacco mosaic virus, read-out: relative inhibition rate (%) inactive effect
SMILES,inhibition at 100 µg/mL,inhibition at 500 µg/mL
O=C(Cn1ccc(=O)c2ccccc21)NN=Cc1ccc(-c2ccccc2)cc1 [Compound 11],19.8 ± 2.8%,49.6 ± 3.9%
COc1cccc(C=NNC(=O)Cn2ccc(=O)c3ccccc32)c1 [Compound 4],16.8 ± 0.3%,51.2 ± 1.9%
O=C(Cn1ccc(=O)c2ccccc21)NN=Cc1cc2ccccc2[nH]1 [Compound 23],0%,40.1 ± 2.7%
"NC(=O)c1ncn([C@@H]2O[C@H](CO)[C@@H](O)[C@H]2O)n1 [Ribavirin, reference compound]",12.1 ± 1.4%,39.2 ± 3.5%
O=C(Cn1ccc(=O)c2ccccc21)NN=Cc1ccc(C(F)(F)F)cc1 [Compound 17],7.5 ± 0.2%,47.1 ± 1.9%

# Tested on: Physalospora piricola
# Experiment: not given
# Type: cell-based
# Conditions: read-out: Inhibition rate, Pp, 50 mg/L, Physalospora piricola
row,SMILES,inhibition at 50 µg/mL
1,O=C(Cn1ccc(=O)c2ccccc21)NN=Cc1ccc(-c2ccccc2)cc1 [Compound 11],17.6 ± 1.6%
2,COc1cccc(C=NNC(=O)Cn2ccc(=O)c3ccccc32)c1 [Compound 4],38.2 ± 1.7%
3,O=C(Cn1ccc(=O)c2ccccc21)NN=Cc1cc2ccccc2[nH]1 [Compound 23],51.5 ± 2.3%
4,O=C(Cn1ccc(=O)c2ccccc21)NN=Cc1ccc(C(F)(F)F)cc1 [Compound 17],47.1 ± 1.4%

# Tested on: TMV
# Experiment: Protective effect of compounds against TMV in vivo
# Parameters: species or system tobacco mosaic virus
# Conditions: 100 mg/L, in vivo, against TMV
row,SMILES,relative inhibition rate (%) protective effect
1,O=C(Cn1ccc(=O)c2ccccc21)NN=Cc1cc2ccccc2[nH]1 [Compound 23],did not exhibit any

# Same assay, conditions: Tobacco mosaic virus, read-out: relative inhibition rate (%) protective effect
SMILES,inhibition at 100 µg/mL,inhibition at 500 µg/mL
O=C(Cn1ccc(=O)c2ccccc21)NN=Cc1ccc(-c2ccccc2)cc1 [Compound 11],20.9 ± 0.4%,45.2 ± 1.1%
COc1cccc(C=NNC(=O)Cn2ccc(=O)c3ccccc32)c1 [Compound 4],15.8 ± 2.5%,46.3 ± 1.8%
O=C(Cn1ccc(=O)c2ccccc21)NN=Cc1cc2ccccc2[nH]1 [Compound 23],0%,43.9 ± 1%
"NC(=O)c1ncn([C@@H]2O[C@H](CO)[C@@H](O)[C@H]2O)n1 [Ribavirin, reference compound]",13.4 ± 0.7%,40.8 ± 1%
O=C(Cn1ccc(=O)c2ccccc21)NN=Cc1ccc(C(F)(F)F)cc1 [Compound 17],19 ± 1.8%,44.1 ± 1.4%

# — PMC11360041 (ACS Omega, 2024)
